In US20250179059A1 (The Regents of the University of California, priority 2021, published 2025):
Where two headings read alike, the source gives them in different places.

Assays:
[1] = molecular target: T1, human BRD4 bromodomain II (Homo sapiens, UniProt O60885); assay: Bromodomain binding assay (AlphaScreen), BRD4 BDII
T1 construct: human BRD4 bromodomain II [based on Genbank NM_058243, residues 349-460]; host or cells: E. coli
Summary of the method: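 Inhibition of acetyl-H4 peptide binding to human BRD4 bromodomains is measured by bead-based proximity (AlphaScreen) in pH 7.5 HEPES buffer containing 0.05% CHAPS and 0.1% BSA. Ten compound concentrations in 3-fold steps give competitive binding IC50s.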

[2] = test system: human SKM-1 acute myeloid leukemia cells; assay: SKM-1 antiproliferation cell-based assay (ATPlite); settings: Homo sapiens
Summary of the method: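 Log-phase cells in RPMI 1640/15% FBS were seeded at 34722 cells/mL and exposed for 4 days to nine-concentration DMSO serial dilutions in triplicate. Viability was read as ATP luminescence (ATPlite 1step), and IC50 values came from variable-slope non-linear regression.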

[3] = AlphaScreen assay, Table C2, read-out: BRD4 BDII IC50
[4] = SKM-1, 96 h, SKM-1 antiproliferation assay, 4 days, Table C2
[5] = BRD4 BDII AlphaScreen assay, read-out: BRD4 BD2 IC50
[6] = SKM-1, SKM-1 antiproliferation assay

Structure (SMILES)	IC50 [1, 3] [nM]	GI50 [2, 4] [nM]	IC50 [1, 5] [nM]	GI50 [2, 6] [nM]
Cn1ccn(-c2ccc(-c3cc(F)cc(-c4ccnc(N5CCN(C6CCOC6)CC5)c4)c3O)cc2Cl)c1=O (stereo not shown) [Example 618, 1-(3-chloro-5′-fluoro-2′-hydroxy-3′-(2-(4-(tetrahydrofuran-3-yl)piperazin-1-yl)pyridin-4-yl)-[1,1′-biphenyl]-4-yl)-3-methyl-1H-imidazol-2(3H)-one]	0.01 to 1	30 to 300	–	–
COc1ncc(-c2cc(F)cc(-c3ccc(-n4ccn(C)c4=O)c(Cl)c3)c2O)cc1N1CCN(C(C)(C)C)CC1 [Example 802, 1-(3′-(5-(4-(tert-butyl)piperazin-1-yl)-6-methoxypyridin-3-yl)-3-chloro-5′-fluoro-2′-hydroxy-[1,1′-biphenyl]-4-yl)-3-methyl-1,3-dihydro-2H-imidazol-2-one]	0.01 to 1	0.3 to 30	–	–
Cc1ccc(-c2cc(F)cc(-c3ccc(-n4ccn(C)c4=O)c(Cl)c3)c2O)cc1N1CC(C)(O)C1 [Example 845, 1-(3-chloro-5′-fluoro-2′-hydroxy-3″-(3-hydroxy-3-methylazetidin-1-yl)-4″-methyl-[1,1′:3′,1″-terphenyl]-4-yl)-3-methyl-1H-imidazol-2(3H)-one]	1 to 10	30 to 300	–	–
CC(=O)Nc1ccc(-c2cccc(-c3cncc(N4CCNCC4)c3)c2O)cc1F [Example 189, N-(3-fluoro-2′-hydroxy-3′-(5-(piperazin-1-yl)pyridin-3-yl)-[1,1′-biphenyl]-4-yl)acetamide]	1 to 10	30 to 300	–	–
Cc1cc(-c2ccc(-n3ccn(C)c3=O)c(Cl)c2)c(O)c(-c2cnnc(N3CCN(C(C)(C)C)CC3)c2)n1 [Example 1017, 1-(4-(2-(6-(4-(tert-butyl)piperazin-1-yl)pyridazin-4-yl)-3-hydroxy-6-methylpyridin-4-yl)-2-chlorophenyl)-3-methyl-1H-imidazol-2(3H)-one]	–	–	1 to 10	30 to 300
Cn1ccn(-c2ccc(-c3cnnc(-c4cccc(N5CCN(C(C)(C)C)CC5)c4)c3O)cc2Cl)c1=O [Example 1020, 1-(4-(6-(3-(4-(tert-Butyl)piperazin-1-yl)phenyl)-5-hydroxypyridazin-4-yl)-2-chlorophenyl)-3-methyl-1H-imidazol-2(3H)-one]	–	–	> 100	300 to 3000
Cc1ncc(-c2cc(F)cc(-c3ccc(-n4ccn(C)c4=O)c(Cl)c3)c2O)cc1N1CC(C)(C)[C@](C)(O)C1 [Example 884]	–	–	1 to 10	30 to 300
Cn1ccn(-c2ccc(-c3cc(F)cc(-c4ccnc(N5CCCC6(CCCN6)C5)c4)c3O)cc2Cl)c1=O (stereo not shown) [Example 694, 1-(3′-(2-(1,7-diazaspiro[4.5]decan-7-yl)pyridin-4-yl)-3-chloro-5′-fluoro-2′-hydroxy-[1,1′-biphenyl]-4-yl)-3-methyl-1H-imidazol-2(3H)-one]	1 to 10	0.3 to 30	–	–
Cn1ccn(-c2ccc(-c3cc(F)cc(-c4ccnc(N5CCCC(C)(O)C5)c4)c3O)cc2Cl)c1=O (stereo not shown) [Example 714, 1-(3-chloro-5′-fluoro-2′-hydroxy-3′-(2-(3-hydroxy-3-methylpiperidin-1-yl)pyridin-4-yl)-[1,1′-biphenyl]-4-yl)-3-methyl-1H-imidazol-2(3H)-one]	0.01 to 1	30 to 300	–	–
Cn1cc(-c2cc(F)cc(-c3ccc(-n4ccn(C)c4=O)c(Cl)c3)c2O)cc(N2CCC(N)CC2)c1=O [Example 427, 3-(4-aminopiperidin-1-yl)-5-(3′-chloro-5-fluoro-2-hydroxy-4′-(3-methyl-2-oxo-2,3-dihydro-1H-imidazol-1-yl)-[1,1′-biphenyl]-3-yl)-1-methylpyridin-2(1H)-one]	1 to 10	300 to 3000	–	–
Cc1cc(-c2cc(C)nc(N3CCNCC3)c2)c(O)c(-c2ccc(N3CCN(C)C3=O)c(Cl)c2)c1 [Example 337, 1-(3-chloro-2′-hydroxy-5′-methyl-3′-(2-methyl-6-(piperazin-1-yl)pyridin-4-yl)-[1,1′-biphenyl]-4-yl)-3-methylimidazolidin-2-one]	1 to 10	30 to 300	–	–
